This note sets out measurements from patent US7018641B1, “Materials and methods for the control of plant pathogens” (priority 2000, dated 2006).

The test system of test [1] is Ralstonia solanacearum. The class given is cell-based.
Test [2] deals with Ralstonia solanacearum. In kind it is cell-based. The source holds these as a separate data set.

Regarding `CC(C)=CCC/C(C)=C/CO` [Geraniol, geraniol], in the test with Ralstonia solanacearum [1] (compared to untreated control), the “reduction of population of Ralstonia solanacearum” value amounted to 89.5%. For the same molecule, the volatile bactericidal activity result with Ralstonia solanacearum [1] (in words) is given as “volatile bactericidal activity”.
With `Cc1ccc(C(C)C)c(O)c1` [Thymol, thymol], the “inhibition of the development of R. solanacearum colonies” value with Ralstonia solanacearum [2] (100 μg/ml concentration, FIG. 2) is reported as “entirely inhibited”. For the same molecule, the “efficacy against Rs” value in the test on Ralstonia solanacearum [2] (tested in vitro and in greenhouse, vapor effect for the oils) was “effective”.
